Experimental data published in the supplement of paper PMC11061612.

What was measured:
Experiment in all cases: Bliss excess, mean over the matrix (fraction); higher = more synergy
[1] = test system: CADO-ES1 (Ewing's Sarcoma)
Method in brief: (§1)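 Cell lines in DMEM/F12 or RPMI with 10% FBS were plated in 1536-well plates, held 24 hours at 37°C, 5% CO2, then given two-drug dose matrices for 72 hours (DMSO typically 0.2%). Viability was read by CellTiter-Glo 2.0 luminescence and scaled as inhibition from 0 (vehicle wells) to 1 (blank wells). Combination Emax is the second-highest inhibition in the matrix; Bliss excess is observed combination effect minus expected EA + EB − EA·EB, EA and EB being single-agent effects.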

[2] = test system: COLO-679 (Melanoma)
Method in brief: as §1

[3] = test system: EFO-21 (Ovarian Carcinoma)
Method in brief: as §1

[4] = test system: EJM (Plasma Cell Myeloma)
Method in brief: as §1

[5] = test system: G-401 (Other Solid Carcinomas)
Method in brief: as §1

[6] = test system: HAL-01 (B-Lymphoblastic Leukemia)
Method in brief: as §1

[7] = test system: HCC2998 (Colorectal Carcinoma)
Method in brief: as §1

[8] = test system: Hey (Ovarian Carcinoma)
Method in brief: as §1

[9] = test system: KGN (Other Solid Carcinomas)
Method in brief: as §1

[10] = test system: KOPN-8 (B-Lymphoblastic Leukemia)
Method in brief: as §1

[11] = test system: MDA-MB-453 (Breast Carcinoma)
Method in brief: as §1

[12] = test system: ML-2 (Acute Myeloid Leukemia)
Method in brief: as §1

[13] = test system: MOG-G-UVW (Low Grade Glioma)
Method in brief: as §1

[14] = test system: Mo-T (Other Blood Carcinomas)
Method in brief: as §1

[15] = test system: NCI-H1993 (Lung Adenocarcinoma)
Method in brief: as §1

[16] = test system: NCI-H2122 (Lung Adenocarcinoma)
Method in brief: as §1

[17] = test system: NCI-H650 (Lung Adenocarcinoma)
Method in brief: as §1

[18] = test system: OACM5-1 (Esophageal Adenocarcinoma)
Method in brief: as §1

[19] = test system: SK-N-AS (Neuroblastoma)
Method in brief: as §1

[20] = test system: SW982 (Other Solid Carcinomas)
Method in brief: as §1

Compound	Bliss excess [1]	Bliss excess [2]	Bliss excess [3]	Bliss excess [4]	Bliss excess [5]	Bliss excess [6]	Bliss excess [7]	Bliss excess [8]	Bliss excess [9]	Bliss excess [10]	Bliss excess [11]	Bliss excess [12]	Bliss excess [13]	Bliss excess [14]	Bliss excess [15]	Bliss excess [16]	Bliss excess [17]	Bliss excess [18]	Bliss excess [19]	Bliss excess [20]
Cc1c2c(nn1C)CSCc1cc(n(C)n1)CSc1cc(c3ccccc3c1)OCCCc1c(C(=O)O)n(C)c3c-2c(Cl)ccc13 [AZD5991] + CC1(C)CCC(CN2CCN(c3ccc(C(=O)NS(=O)(=O)c4ccc(NCC5CCOCC5)c([N+](=O)[O-])c4)c(Oc4cnc5[nH]ccc5c4)c3)CC2)=C(c2ccc(Cl)cc2)C1 [Venetoclax] (first compound max 1 µM, 7x7, partner max 1 µM)	-0.0023	-0.0218	-0.0608	0.0164	0.0446	0.0231	-0.0362	-0.0236	-0.0308	-0.102	0.0023	0.16	0.0083	-0.0211	0.0009	0.0016	-0.0014	0.0228	0.0857	-0.0312
CC1(C)CCC(CN2CCN(c3ccc(C(=O)NS(=O)(=O)c4ccc(NCC5CCOCC5)c([N+](=O)[O-])c4)c(Oc4cnc5[nH]ccc5c4)c3)CC2)=C(c2ccc(Cl)cc2)C1 [Venetoclax] + C[C@@H]1COCCN1C2=NC(=NC(=C2)C3(CC3)[S@](=N)(=O)C)C4=C5C=CNC5=NC=C4 [AZD6738] (first compound max 1 µM, 7x7, partner max 10 µM)	0.0118	-0.0242	-0.0351	-0.0176	-0.0944	0.106	-0.0423	-0.0378	-0.0601	0.0289	-0.0492	0.0694	-0.0672	-0.0373	-0.0366	-0.0137	-0.0839	0.0115	-0.0222	-0.031
NC1(C(=O)N[C@@H](CCO)c2ccc(Cl)cc2)CCN(c2ncnc3[nH]ccc23)CC1 [Capivasertib] + CC(C)n1c(=O)n(C)c2cnc3cc(F)c(-c4ccc(OCCCN5CCCCC5)nc4)cc3c21 [AZD1390] (first compound max 10 µM, 7x7, partner max 0.3 µM)	-0.039	-0.116	-0.0361	-0.0543	-0.0346	-0.0354	-0.0275	-0.0766	-0.047	-0.0611	-0.0471	-0.0296	-0.0278	-0.0451	-0.0311	-0.0103	-0.0899	-0.0676	-0.0657	-0.0696
COc1cccc(OCCCN)c1-c1cc(Nc2cnc(C#N)cn2)n[nH]1 [Prexasertib] + C=CCn1c(=O)c2cnc(Nc3ccc(N4CCN(C)CC4)cc3)nc2n1-c1cccc(C(C)(C)O)n1 [AZD1775] (first compound max 1 µM, partner max 1 µM)	0.0737	0.0059	-0.0075	0.0228	0.0612	0.0697	0.0716	0.11	0.0615	0.0438	0.0702	0.045	0.0656	0.0023	0.0596	0.0341	0.0382	0.105	0.0218	-0.0341
